Laboratory results from patent US10100077B2, “6-aryl-9-glycosylpurines and use thereof” (UNIVERZITA PALACKEHO V OLOMOUCI, priority 2014, dated 2018).

Tests used:
[1] = tested on: mousse fibroblasts (NIH3T3); assay: Calcein AM cytotoxicity assay, NIH3T3; type: cell-based, mouse; conditions: 72 hrs
Source text: (§1) One of the parameters used as the base for cytotoxic analysis is metabolic activity of viable cells, such as microtiter assay, which uses the Calcein AM, is now widely used to quantitate cell proliferation and cytotoxicity. The quantity of reduced Calcein AM corresponds to the number of viable cells in culture. The cell lines of breast cancer (MCF-7), mousse fibroblasts (NIH3T3), human erythromleukemia (K562) were used for routine screening of cytotoxicity of the compounds. The cells were maintened in Nunc/Corning 80 cm^2 plastic bottles and grown in media for cell culture (DMEM containing 5 g/l of glucose, 2 mM of glutamin, 100 U/ml of penicilin, […] of streptomycin, 10% of fetal bovine serum and sodium hydrogencarbonate). Cell suspensions were diluted according to cell types and according to expected final cell density (10^4 of cells per well according to characteristics of cell growth), pipetted 80 μl of cell suspension on 96-well microtiter plates. Innoculates were stabilized by 24 hrs preincubation at 37° C. in CO2. Particular concentrations of tested compounds were added in time zero as 20 μl aliquotto wells of microtiter plates. Usually, the compounds were diluted into six concentrations in four-fold dilution series. In routine testing, the highest well concentration was 166.7 μM, of change dependent on the substance. All drug concentrations were examined in duplicates. The incubation of cells with tested derivatives lasted 72 hrs at 37° C., 100% humidity and in the atmosphere of CO2. At the end of the incubation period, the cells were tested and analysed according to the addition of Calcein AM (Molecular probes) solution and the incubation lasted for next 1 hour. Fluorescence (FD) was measured using Labsystem FIA reader Fluorskan Ascent (Microsystems). The survival of tumor cells (The tumor cell survival-TCS) was counted according to equation: […]=(FDwell with derivative/FDcontrol well)×100%. The value of GI50, that is equal to the concentration of compound at which 50% of tumour cells are terminated. To evaluate the antitumor activity was tested toxicity of new derivatives on panel of cell lines of different histogenetic and species origin (Tab. 7, G150 concentration given in μM). […] Effective derivatives killed tumor cells in concentrations close to 0.1 to 50. None of the newly prepared compounds only reached the value.

[2] = tested on: human erythromleukemia (K562); assay: Calcein AM cytotoxicity assay, K562; type: cell-based; conditions: 72 hrs
Source text: as §1

breast cancer (MCF-7) = assay: Calcein AM cytotoxicity assay, MCF-7; type: cell-based; conditions: 72 hrs
Source text: as §1

[3] = tested on: skin fibroblasts BJ and keratinocytes HaCaT; assay: MTT in vitro cytotoxicity test for skin cells; type: cell-based; conditions: for IC50: MTT, 72 hour treatment, BJ and HaCaT, maximal concentration 50 microM
Protocol: MTT assay is a standard test of toxicity based on photometric measurement of the ability of metabolically active cells to reduce MTT (3-(4,5-dimethylthiazol-2-yl)-2,5-diphenyltetrazolium bromide). Using the assay, the effects of 72 hour treatments with several concentrations of the compounds (sixfold dilution, maximal concentration=50 microM) on viability of skin fibroblasts BJ and keratinocytes HaCaT were evaluated. About 5,000 cells were seeded per well of a 96-well plate 24 hours before the treatment. DMSO vehiculum was used as a negative control. After 72 hour treatment, new medium with MTT (Sigma, M2128) was added to a final concentration of 0.5 mg/ml. After 3 hours, medium was removed and resulting formazan in the cells was dissolved in DMSO. The absorbance was measured at 570 nm (640 nm reference wavelength). The IC50 values were calculated from the dose-response curves. 6-Benzylaminopurine riboside and 6-furfurylaminopurine riboside were used as positive controls they were toxic in the MTT test.

[4] = tested on: skin fibroblasts BJ and keratinocytes HaCaT; assay: SRB in vitro toxicity test; type: cell-based; conditions: 72 hour treatment, maximal concentration 50 microM
Protocol: SRB (sulforhodamine B) assay is a standard toxicity test based on a photometric measurement of the cellular protein content after the staining with sulphorhodamine B. Using the assay, the effects of 72 hour treatments with several concentrations of the compounds (sixfold dilution, maximal concentration=50 microM) on viability of skin fibroblasts BJ and keratinocytes HaCaT were evaluated. About 5,000 cells were seeded per well of a 96-well plate 24 hours before the treatment. DMSO vehiculum was used as a negative non-toxic control. 6-benzylaminopurine riboside a 6-furfurylaminopurin riboside were used as positive toxic controls. After three days the medium was removed and the cells fixed with 10% (wt/vol) trichloroacetic acid. After the extensive washing in distilled water, 0.4% (wt/vol) solution of SRB in acetic acid was added and the fixed cells were stained for 30 minutes. The unbound stain was washed away by distilled water and the bound SRB was solubilized in unbuffered 10 mM Tris base. Absorbance was measured at 564 nm. IC50 values were calculated from dose-response curves.

[5] = tested on: detached leaf segments of Triticum aestivum cv. Hereward; assay: Senescence bioassay on wheat leaf segments (chlorophyll retention); conditions: for maximum effective concentration: 96 h in the dark at 25° C.; for activity (%) [10^−4 mol · l^−1 BAP = 100%]: chlorophyll retention at maximum effective concentration, 96 h dark
Protocol: Seeds of winter wheat, Triticum aestivum cv. Hereward, were washed under running water for 24 hours and then sown on vermiculite soaked with Knop's solution. They were placed in the growth chamber at 25° C. with a 16/8 h light period at 50 μmol·m^−2·s^−1. After 7 days, the first leaf was fully developed and the second leaf had started to grow. A tip section of the first leaf, approximately 35 mm long, was removed from 5 seedlings and trimmed slightly to a combined weight of 100 mg. The basal ends of the five leaf tips were placed in the wells of a microtiter polystyrene plate containing 150 μL, of the tested derivative solution each. The entire plate was inserted into a plastic box lined with paper tissues soaked in distilled water to prevent leaf sections from drying out. After 96 h incubation in the dark at 25° C., the leaves were removed and chlorophyll extracted by heating at 80° C. for 10 min in 5 mL of 80% ethanol (v/v). The sample volume was then restored to 5 mL by the addition of 80% ethanol (v/v). The absorbance of the extract was recorded at 665 nm. In addition, chlorophyll extracts from fresh leaves and leaf tips incubated in deionised water were measured. The results are means of five replicates and the entire test was repeated twice. […] The compounds to be tested were dissolved in dimethylsulfoxide (DMSO) and the solution brought up to 10^−3M with distilled water. This stock solution was further diluted with the respective media used for the biotest to a concentration ranging from 10^−8M to 10^−4M. […] The activity obtained for 10^−4 M of BAP was postulated as 100%.

Compound: 2,4-dimethoxybenzylamino-9-β-D-arabinofuranosylpurine
- GI50 [1]: > 100 µM
- GI50 [2]: > 100 µM
- GI50 (breast cancer (MCF-7)): 98 µM

Compound: 2-chloro-4-fluorobenzylamino-9-β-D-arabinofuranosylpurine
- GI50 [1]: > 100 µM
- GI50 [2]: > 100 µM
- GI50 (breast cancer (MCF-7)): > 100 µM

Compound: 3-chloro-4-fluorobenzylamino-9-β-D-arabinofuranosylpurine
- GI50 [1]: > 100 µM
- GI50 [2]: > 100 µM
- GI50 (breast cancer (MCF-7)): > 100 µM

Compound: OC[C@H]1O[C@@H](n2cnc3c(NCc4ccccc4F)ncnc32)[C@@H](O)[C@@H]1O [2-fluorobenzylamino-9-β-D-arabinofuranosylpurine]
- GI50 [1]: > 100 µM
- GI50 [2]: > 100 µM
- GI50 (breast cancer (MCF-7)): 87 µM

Compound: OC[C@H]1O[C@@H](n2cnc3c(NCc4cccc(Cl)c4)ncnc32)C[C@@H]1O [3-chlorobenzylamino-9-β-D-2′-deoxyribosylpurine]
- GI50 [1]: > 100 µM
- GI50 [2]: > 100 µM
- GI50 (breast cancer (MCF-7)): > 100 µM

Compound: OC[C@H]1O[C@@H](n2cnc3c(NCc4cccc(F)c4)ncnc32)C[C@@H]1O [3-fluorobenzylamino-9-β-D-2′-deoxyribosylpurine]
- GI50 [1]: > 100 µM
- GI50 [2]: > 100 µM
- GI50 (breast cancer (MCF-7)): > 100 µM

Compound: OC[C@H]1O[C@@H](n2cnc3c(NCc4cccc(O)c4)ncnc32)C[C@@H]1O [3-hydroxybenzylamino-9-β-D-2′-deoxyribosylpurine]
- GI50 [1]: > 100 µM
- GI50 [2]: > 100 µM
- GI50 (breast cancer (MCF-7)): > 100 µM

Compound: COc1ccc(CNc2ncnc3c2ncn3[C@@H]2O[C@H](CO)[C@@H](O)[C@@H]2O)c(OC)c1OC [6-(2,3,4-trimethoxybenzylamino)-9-β-D-arabinofuranosylpurine]
- IC50 ([3]; Homo sapiens): 48 µM
- IC50 ([4]; Homo sapiens): > 50 µM

Compound: COc1cccc(CNc2ncnc3c2ncn3[C@@H]2O[C@H](CO)[C@@H](O)[C@@H]2O)c1OC [6-(2,3-dimethoxybenzylamino)-9-β-D-arabinofuranosylpurine]
- IC50 ([3]; Homo sapiens): 49 µM
- IC50 ([4]; Homo sapiens): > 50 µM

Compound: OC[C@H]1O[C@@H](n2cnc3c(NCc4ccc(Cl)cc4Cl)ncnc32)[C@H](O)[C@@H]1O [6-(2,4-dichlorbenzylamino)-9-riboside, reference compound]
- maximum effective concentration [5]: 10^−4 mol · l^−1
- activity (%) [10^−4 mol · l^−1 BAP = 100%] [5]: 5 ± 1%

Compound: OC[C@H]1O[C@@H](n2cnc3c(NCc4ccccc4Br)ncnc32)[C@@H](O)[C@@H]1O [6-(2-bromobenzylamino)-9-β-D-arabinofuranosylpurine]
- activity (%) [10^−4 mol · l^−1 BAP = 100%] [5]: 186 ± 19%

Compound: OC[C@H]1O[C@@H](n2cnc3c(NCc4ccccc4Cl)ncnc32)[C@@H](O)[C@@H]1O [6-(2-chlorobenzylamino)-9-β-D-arabinofuranosylpurine]
- IC50 ([3]; Homo sapiens): > 50 µM
- IC50 ([4]; Homo sapiens): > 50 µM

Compound: OC[C@H]1O[C@@H](n2cnc3c(NCc4ccccc4O)ncnc32)C[C@@H]1O [6-(2-hydroxybenzylamino)-9-β-D-2′-deoxyribofuranosylpurine]
- IC50 [3]: > 50 µM
- IC50 [4]: > 50 µM

Compound: COc1ccc(CNc2ncnc3c2ncn3[C@@H]2O[C@H](CO)[C@@H](O)[C@H]2O)cc1OC [6-(3,4-dimethoxybenzylamino)-9-riboside, reference compound]
- maximum effective concentration [5]: 10^−4 mol · l^−1
- activity (%) [10^−4 mol · l^−1 BAP = 100%] [5]: 47 ± 6%

Compound: COc1ccc(CNc2ncnc3c2ncn3[C@@H]2O[C@H](CO)[C@@H](O)[C@@H]2O)cc1OC [6-(3,4-dimethoxybenzylamino)-9-β-D-arabinofuranosylpurine]
- activity (%) [10^−4 mol · l^−1 BAP = 100%] [5]: 147 ± 6%

Compound: Nc1cccc(CNc2ncnc3c2ncn3[C@@H]2O[C@H](CO)[C@@H](O)[C@@H]2O)c1 [6-(3-aminobenzylamino)-9-β-D-arabinofuranosylpurine]
- IC50 ([3]; Homo sapiens): > 50 µM
- IC50 ([4]; Homo sapiens): > 50 µM

Compound: OC[C@H]1O[C@@H](n2cnc3c(NCc4cccc(Br)c4)ncnc32)[C@H](O)[C@@H]1O [6-(3-bromobenzylamino)-9-riboside, reference compound]
- maximum effective concentration [5]: 10^−4 mol · l^−1
- activity (%) [10^−4 mol · l^−1 BAP = 100%] [5]: 89 ± 10%

Compound: OC[C@H]1O[C@@H](n2cnc3c(NCc4cccc(Br)c4)ncnc32)[C@@H](O)[C@@H]1O [6-(3-bromobenzylamino)-9-β-D-arabinofuranosylpurine]
- activity (%) [10^−4 mol · l^−1 BAP = 100%] [5]: 198 ± 10%

Compound: OC[C@H]1O[C@@H](n2cnc3c(NCc4cccc(Cl)c4)ncnc32)[C@H](O)[C@@H]1O [6-(3-chlorobenzylamino)-9-riboside, reference compound]
- maximum effective concentration [5]: 10^−4 mol · l^−1
- activity (%) [10^−4 mol · l^−1 BAP = 100%] [5]: 72 ± 8%

Compound: OC[C@H]1O[C@@H](n2cnc3c(NCc4cccc(O)c4)ncnc32)[C@@H](O)[C@@H]1O [6-(3-hydroxybenzylamino)-9-β-D-arabinofuranosylpurine]
- IC50 ([3]; Homo sapiens): > 50 µM
- IC50 ([4]; Homo sapiens): > 50 µM

Compound: OC[C@H]1O[C@@H](n2cnc3c(NCc4cccc(I)c4)ncnc32)[C@H](O)[C@@H]1O [6-(3-iodobenzylamino)-9-riboside, reference compound]
- maximum effective concentration [5]: 10^−4 mol · l^−1
- activity (%) [10^−4 mol · l^−1 BAP = 100%] [5]: 58 ± 19%

Compound: OC[C@H]1O[C@@H](n2cnc3c(NCc4cccc(I)c4)ncnc32)[C@@H](O)[C@@H]1O [6-(3-iodobenzylamino)-9-β-D-arabinofuranosylpurine]
- IC50 ([3]; Homo sapiens): > 50 µM
- activity (%) [10^−4 mol · l^−1 BAP = 100%] [5]: 198 ± 4%
- IC50 ([4]; Homo sapiens): > 50 µM

Compound: OC[C@H]1O[C@@H](n2cnc3c(NCc4ccc(Br)cc4)ncnc32)[C@@H](O)[C@@H]1O [6-(4-bromobenzylamino)-9-β-D-arabinofuranosylpurine]
- activity (%) [10^−4 mol · l^−1 BAP = 100%] [5]: 176 ± 11%

Compound: OC[C@H]1O[C@@H](n2cnc3c(NCc4ccco4)ncnc32)C[C@@H]1O [6-(furfurylamino)-9-β-D-2′-deoxyribofuranosylpurine]
- IC50 [3]: > 50 µM
- IC50 [4]: > 50 µM

Compound: OC[C@H]1OC(n2cnc3c(NCc4ccco4)ncnc32)[C@H](O)[C@@H]1O (stereo partly shown) [6-furfurylamino-9-ribosylpurine, reference compound]
- IC50 ([3]; Homo sapiens): ≤ 3 µM
- toxicity in the MTT test ([3]; positive controls): toxic
- IC50 ([4]; Homo sapiens): ≤ 3 µM
